From patent US12577247B2 (BUGWORKS RESEARCH, INC., priority 2021, dated 2026)

How the values were obtained:
[1] = target: T1, A2B receptor (Homo sapiens, UniProt P29275); assay: A2bR antagonism IC50, cAMP TR-FRET in HEK-293 cells, high concentration of adenosine (30 μM); conditions: A2BR IC50 (nM) (@30 μM Adenosine), HEK-293 cells expressing A2B receptor; agonist adenosine 30 μM; 2% HSA; inhibition of cAMP;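 note: compounds preincubated 10 min with cells, then adenosine stimulation 30 min at room temperature in buffer with Rolipram 100 µM and EHNA 30 µM, TR-FRET read after 1 h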
T1 sequence (P29275 1-332): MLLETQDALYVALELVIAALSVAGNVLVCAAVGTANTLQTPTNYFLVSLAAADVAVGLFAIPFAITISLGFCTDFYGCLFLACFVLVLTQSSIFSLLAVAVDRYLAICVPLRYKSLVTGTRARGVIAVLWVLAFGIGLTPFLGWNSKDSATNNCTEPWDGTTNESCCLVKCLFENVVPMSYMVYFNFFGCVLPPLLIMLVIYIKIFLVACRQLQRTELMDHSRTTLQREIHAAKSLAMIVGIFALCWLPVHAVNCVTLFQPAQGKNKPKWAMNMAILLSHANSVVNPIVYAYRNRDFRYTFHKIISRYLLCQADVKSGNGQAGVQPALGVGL
Experimental: (§1) A Time-Resolved Fluorescence Energy Transfer (TR-FRET) assay was used to show the inhibition of this cAMP production in HEK cells upon treatment with compounds of the Formula I of the present disclosure.
(§2) HEK-293 cells expressing A2A receptor (#ES-011-C) or A2B receptor (#ES 013-C) were obtained from PerkinElmer. Cells were maintained in DMEM medium supplemented with 10% FBS and 200 μg/mL of G418 at 37° C. and 5% CO2. The cells were cultured in antibiotic free medium for a period of 16-20 hours prior to the assay. All subsequent steps of the assay are performed at room temperature (22-24° C.). […] About 1500 cells per well were pre-incubated for 10 minutes with the compounds of the present invention before adding the agonist Adenosine at a high concentration (30 μM) for a total stimulation time of 30 minutes. […] The assays were conducted in a stimulation buffer containing 1×DMEM, 5 mM HEPES, 2% Human serum albumin (HSA), 100 μM Rolipram and 30 μM erythro-9-(2-hydroxy-3-nonyl) adenine (EHNA). Serial dilutions of compounds were made in stimulation buffer to achieve a final concentration of high micromolar in a reaction volume of 10 μL. The total reaction volume was 10 μL (5 μL of cells, 2.5 μL of antagonist and 2.5 μL of agonist). […] The stimulation was ended, and the reaction completed by adding 5 μL of 4× Eu-cAMP tracer working solution and 5 μL of 4× ULight-anti-cAMP working solution. The TR FRET signal was measured after 1-hour incubation using a Tecan M1000 or a PerkinElmer Victor Nivo plate reader.

[2] = target: T2, A2A receptor (Homo sapiens, UniProt P29274); assay: A2aR antagonism IC50, cAMP TR-FRET in HEK-293 cells, high concentration of adenosine (30 μM); type: cell-based; conditions: HEK-293 cells expressing A2A receptor; agonist adenosine 30 μM; 2% HSA; inhibition of cAMP; read-out: A2AR IC50 (nM) (@30 μM Adenosine);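 note: compounds added 10 min before adenosine, then 30 min stimulation at room temperature in buffer with 100 µM rolipram and 30 µM EHNA, signal read 1 h after detection reagents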
T2 construct: host or cells: HEK-293
T2 sequence (P29274 whole entry): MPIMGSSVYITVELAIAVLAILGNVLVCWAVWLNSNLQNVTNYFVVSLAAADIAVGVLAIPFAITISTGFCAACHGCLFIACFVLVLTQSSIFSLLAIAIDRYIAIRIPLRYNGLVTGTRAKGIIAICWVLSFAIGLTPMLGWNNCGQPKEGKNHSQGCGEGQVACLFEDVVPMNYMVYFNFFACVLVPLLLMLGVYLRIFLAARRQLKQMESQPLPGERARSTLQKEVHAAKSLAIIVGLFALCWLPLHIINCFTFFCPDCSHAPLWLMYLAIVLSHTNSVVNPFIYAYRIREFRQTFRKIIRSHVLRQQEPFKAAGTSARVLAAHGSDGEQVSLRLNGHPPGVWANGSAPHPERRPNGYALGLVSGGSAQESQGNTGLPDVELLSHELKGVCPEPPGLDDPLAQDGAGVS
Experimental: as §1, §2

IC50 [1] | IC50 [2] | Compound
1010 nM | 139 nM | CCc1c(C)nn2c(N)c(C#N)c(NCCc3cccc(C(C)O)n3)nc12 (racemic) [Example 100, 7-amino-3-ethyl-5-((2-(6-(1-hydroxyethyl)pyridin-2-yl)ethyl)amino)-2-methylpyrazolo[1,5-a] pyrimidine-6-carbonitrile]
2590 nM | 100 nM | Cc1nn2c(N)c(C#N)c(NCCc3ccn(C4CCC4CO)n3)nc2c1C (racemic) [Example 103, (+−)-7-amino-5-((2-(1-(2-(hydroxymethyl)cyclobutyl)-1H-pyrazol-3-yl)ethyl)amino)-2,3-dimethylpyrazolo[1,5-a] pyrimidine-6-carbonitrile]
895 nM | 245 nM | CCc1c(C)nn2c(N)c(C#N)c(NCCc3ccn(C4COCC4CO)n3)nc12 (racemic) [Example 121, (+−)-7-amino-3-ethyl-5-((2-(1-(4-(hydroxymethyl)tetrahydrofuran-3-yl)-1H-pyrazol-3-yl)ethyl)amino)-2-methyl pyrazolo[1,5-a]pyrimidine-6-carbonitrile]
– | 248 nM | Cc1nn2c(N)c(C#N)c(NCCc3ccn(C4COCC4CO)n3)nc2c1C (racemic) [Example 132, (+−)-7-amino-5-((2-(1-(4-(hydroxymethyl)tetrahydrofuran-3-yl)-1H-pyrazol-3-yl)ethyl)amino)-2,3-dimethylpyrazolo[1,5-a]pyrimidine-6-carbonitrile]
1340 nM | 667 nM | CCc1c(C)nn2c(N)c(C#N)c(NCCc3cccn(CC[S+](C)[O-])c3=O)nc12 (racemic) [Example 143, Racemic (+−)7-amino-3-ethyl-2-methyl-5-((2-(1-(2-(methylsulfinyl)ethyl)-2-oxo-1,2-dihydropyridin-3-yl)ethyl)amino) pyrazolo[1,5-a]pyrimidine-6-carbonitrile]
700 nM | 100 nM | CCc1c(C)nn2c(N)c(C#N)c(NCCc3cc(C)n(C4COCC4CO)n3)nc12 (single isomer, unassigned) [Example 167]
798 nM | 200 nM | CCc1c(C)nn2c(N)c(C#N)c(NCCc3ccn(C4CCC4CO)n3)nc12 (single isomer, unassigned; (+)) [Example 78, (+)-7-amino-3-ethyl-5-((2-(1-(2-(hydroxymethyl)cyclobutyl)-1H-pyrazol-3-yl)ethyl)amino)-2-methylpyrazolo[1,5-a]pyrimidine-6-carbonitrile]
2650 nM | 109 nM | Cc1nn2c(N)c(C#N)c(NCCc3ccn(CC4CC(O)C4)n3)nc2c1Cl (single isomer, unassigned; (+)) [Example 83, (+)-7-amino-3-chloro-5-((2-(1-((3-hydroxycyclobutyl)methyl)-1H-pyrazol-3-yl)ethyl)amino)-2-methylpyrazolo[1,5-a]pyrimidine-6-carbonitrile]
2260 nM | 88 nM | Cc1nn2c(N)c(C#N)c(NCCc3ccn(C4CCC4CO)n3)nc2c1C (single isomer, unassigned; (+)) [Example 104a, (+)-7-amino-5-((2-(1-(2-(hydroxymethyl)cyclobutyl)-1H-pyrazol-3-yl)ethyl)amino)-2,3-dimethylpyrazolo[1,5-a]pyrimidine-6-carbonitrile]
707 nM | 289 nM | CCc1c(C)nn2c(N)c(C#N)c(NCCc3ccn(C4COCC4CO)n3)nc12 (single isomer, unassigned; (+)) [Example 122a, (+)-7-amino-3-ethyl-5-((2-(1-(4-(hydroxymethyl)tetrahydrofuran-3-yl)-1H-pyrazol-3-yl)ethyl)amino)-2-methyl pyrazolo[1,5-a]pyrimidine-6-carbonitrile]
6690 nM | 554 nM | Cc1nn2c(N)c(C#N)c(NCCc3ccn(C4COCC4CO)n3)nc2c1C (single isomer, unassigned; (+)) [Example 133a, (+)-7-amino-5-((2-(1-(4-(hydroxymethyl)tetrahydrofuran-3-yl)-1H-pyrazol-3-yl)ethyl)amino)-2,3-dimethylpyrazolo[1,5-a]pyrimidine-6-carbonitrile]
821 nM | 327 nM | CCc1c(C)nn2c(N)c(C#N)c(NCCc3cccn(CC[S+](C)[O-])c3=O)nc12 (single isomer, unassigned; (+)) [Example 144a, (+)7-amino-3-ethyl-2-methyl-5-((2-(1-(2-(methylsulfinyl)ethyl)-2-oxo-1,2-dihydropyridin-3-yl)ethyl)amino) pyrazolo[1,5-a]pyrimidine-6-carbonitrile]
1410 nM | 1010 nM | CCc1c(C)nn2c(N)c(C#N)c(NCCc3cccn(CCC[S+](C)[O-])c3=O)nc12 (single isomer, unassigned; (+)) [Example 154b, (+)-7-amino-3-ethyl-2-methyl-5-((2-(1-(3-(methylsulfinyl)propyl)-2-oxo-1,2-dihydropyridin-3-yl)ethyl)amino) pyrazolo[1,5-a]pyrimidine-6-carbonitrile]
911 nM | 139 nM | CCc1c(C)nn2c(N)c(C#N)c(NCCc3cccc(C(C)O)n3)nc12 (single isomer, unassigned; (+)) [Example 159a, (+)-7-amino-3-ethyl-5-((2-(6-(1-hydroxyethyl)pyridin-2-yl)ethyl)amino)-2-methylpyrazolo[1,5-a]pyrimidine-6-carbonitrile]
1930 nM | 579 nM | CCCc1c(C)nn2c(N)c(C#N)c(NCCc3ccn(C4COCC4CO)n3)nc12 (single isomer, unassigned; (+)) [Example 160a, (+) 7-amino-5-((2-(1-(4-(hydroxymethyl)tetrahydrofuran-3-yl)-1H-pyrazol-3-yl)ethyl)amino)-2-methyl-3-propylpyrazolo[1,5-a]pyrimidine-6-carbonitrile]
2730 nM | 1230 nM | CCc1c(C)nn2c(N)c(C#N)c(NCCc3ccn(CCC[S+](C)[O-])n3)nc12 (single isomer, unassigned; (+)) [Example 162b, (+)-7-amino-3-ethyl-2-methyl-5-((2-(1-(3-(methylsulfinyl)propyl)-1H-pyrazol-3-yl)ethyl)amino)pyrazolo[1,5-a]pyrimidine-6-carbonitrile]
12200 nM | 82 nM | CCc1c(C)nn2c(N)c(C#N)c(NCCc3ccn(C4(CNCC[S+](C)[O-])CC4)n3)nc12 (single isomer, unassigned; (+)) [Example 163b, (+)-7-amino-3-ethyl-2-methyl-5-((2-(1-(1-(((2-(methylsulfinyl)ethyl)amino)methyl)cyclopropyl)-1H-pyrazol-3-yl)ethyl)amino) pyrazolo[1,5-a]pyrimidine-6-carbonitrile]
> 15000 nM | 2160 nM | CCCc1c(C)nn2c(N)c(C#N)c(NCCc3ccn(C4CCC4CO)n3)nc12 (single isomer, unassigned; (+)) [Example 165a, (+)-7-amino-5-((2-(1-(2-(hydroxymethyl)cyclobutyl)-1H-pyrazol-3-yl)ethyl)amino)-2-methyl-3-propylpyrazolo[1,5-a]pyrimidine-6-carbonitrile]
650 nM | 90 nM | CCc1c(C)nn2c(N)c(C#N)c(NCCc3cc(C)n(C4COCC4CO)n3)nc12 (single isomer, unassigned; (+)) [Example 168]
4250 nM | 102 nM | Cc1nn2c(N)c(C#N)c(NCCc3ccn(CC4CC(O)C4)n3)nc2c1Cl (single isomer, unassigned; (-)) [Example 84, (−)-7-amino-3-chloro-5-((2-(1-((3-hydroxycyclobutyl)methyl)-1H-pyrazol-3-yl)ethyl)amino)-2-methylpyrazolo[1,5-a]pyrimidine-6-carbonitrile]
2610 nM | 102 nM | Cc1nn2c(N)c(C#N)c(NCCc3ccn(C4CCC4CO)n3)nc2c1C (single isomer, unassigned; (-)) [Example 104b, (−)-7-amino-5-((2-(1-(2-(hydroxymethyl)cyclobutyl)-1H-pyrazol-3-yl)ethyl)amino)-2,3-dimethylpyrazolo[1,5-a]pyrimidine-6-carbonitrile]
6070 nM | 136 nM | Cc1nn2c(N)c(C#N)c(NCCc3ccn(C4COCC4CO)n3)nc2c1C (single isomer, unassigned; (-)) [Example 133b, (−)-7-amino-5-((2-(1-(4-(hydroxymethyl)tetrahydrofuran-3-yl)-1H-pyrazol-3-yl)ethyl)amino)-2,3-dimethylpyrazolo[1,5-a]pyrimidine-6-carbonitrile]
– | 456 nM | CCc1c(C)nn2c(N)c(C#N)c(NCCc3cccc(CNCCOC)n3)nc12 [Example 96, 7-amino-3-ethyl-5-((2-(6-(((2-methoxyethyl)amino)methyl)321yridine-2-yl)ethyl)amino)-2-methylpyrazolo[1,5-a]pyrimidine-6-carbonitrile]
3870 nM | – | Cc1nn2c(N)c(C#N)c(NCCc3cccc(CNCCO)n3)nc2c1C [Example 105, 7-amino-5-((2-(6-(((2-hydroxyethyl)amino)methyl)pyridin-2-yl)ethyl)amino)-2,3-dimethylpyrazolo[1,5-a]pyrimidine-6-carbonitrile]
